Results as given in patent US6355634B1, “Aromatic compounds” (Bayer Aktiengesellschaft, priority 1990, dated 2002).

How the values were obtained:
Puccinia coronata = Puccinia coronata (curative action) on oat seedlings; format: in vivo; conditions: 160 ppm spray, oat cv. Selma, evaluated 9-10 days after infection, read-out: action (leaf area infected with Puccinia coronata as a percentage compared with the infected, untreated control)
Method: Puccinia coronata (Curative Action)
30-40 oat seedlings cv. “Selma” (distributed to 2 pots of ø7 cm) are infected with Puccinia coronata by spraying with an aqueous spore suspension (approx. 150,000 uredospores/ml). The test plants are subsequently incubated for 24 hours at 20-24° C. and under dew-point conditions. The oat seedlings are then sprayed thoroughly from all sides with a spray mixture prepared with a wettable powder of the active substance (with 160 ppm of active ingredient). They are cultured further in a controlled-environment cabinet at 19° C. and with a photoperiod of 14 hours. The test is evaluated 9-10 days after infection by determining the leaf area infected with Puccinia coronata as a percentage compared with the infected, untreated control.

Cercospora arachidicola = experiment: Action against Cercospora arachidicola on peanut plants (curative action); format: in vivo; conditions: Mycosphaerella arachidis, 288 h, 160 ppm spray, peanut cv. Tamnut, evaluated 12 days after treatment, read-out: action (leaf area infected with Cercospora arachidicola as a percentage compared with the infected control)
Method: Action Against Cercospora arachidicola on Peanut Plants (Curative Action)
Two peanut plants cv. “Tamnut” in the 4-leaf stage are sprayed with a conidia suspension of Cercospora arachidicola (approx. 200,000 conidia/ml) and subsequently incubated at 25-26° C. and under dew-point conditions. After two days, the plants are sprayed thoroughly from all sides with a spray mixture prepared with a wettable powder of the active substance (with 160 ppm of active ingredient). The treated plants are subsequently incubated in a controlled-environment cabinet under the following conditions: 25-27° C. and 80% atmospheric humidity during the day, 20° C. and dew-point conditions during the night; the photoperiod in each case is 16 hours. 12 days after the treatment, the test is evaluated by determining the leaf area infected with Cercospora arachidicola as a percentage compared with the infected control.

Venturia inaequalis = Venturia inaequalis (curative action) on apple seedlings; format: in vivo; conditions: 50 ppm spray, apple cv. Golden Delicious, evaluated 9-10 days after treatment, read-out: action (leaf area covered in Venturia inaequalis as a percentage compared with the infected control)
Method: Venturia inaequalis (Curative Action)
Two apple seedlings cv. “Golden Delicious” are sprayed with a conidia suspension of Venturia inaequalis and subsequently incubated at 18° C. and under dew-point conditions. After 24 hours, the plants are sprayed thoroughly from all sides with a spray mixture prepared with a wettable powder of the active substance (with 50 ppm of active ingredient). The treated apple seedlings are subsequently cultured further in the greenhouse. 9-10 days after the treatment, the test is evaluated by determining the leaf area covered in Venturia inaequalis as a percentage compared with the infected control.

Alternaria brassicae = Alternaria brassicae (protective action) on cabbage seedlings; format: in vivo; conditions: 50 ppm spray, cabbage cv. Vorbote, evaluated 2-5 days after infection, read-out: action (leaf area infected with Alternaria brassicae as a percentage compared with the infected, untreated control)
Method: Alternaria brassicae (Protective Action)
4 cabbage seedlings, cv. “Vorbote”, in the 6-leaf stage, distributed to 2 pots, are sprayed thoroughly with a spray mixture prepared with a wettable powder of the active substance (with 50 ppm of active ingredient) and subsequently cultured further in a controlled-environment cabinet at 19° C. and with 16 hours illumination per day. Two days after the treatment, the plants are infected by spraying with an aqueous conidia suspension (approx. 30,000 conidia/ml). The cabbage plants are then incubated at 24-26° C., under dew-point conditions and with a photoperiod of 16 hours. The test is evaluated 2-5 days after the infection by determining the leaf area infected with Alternaria brassicae as a percentage compared with the infected, untreated control.

Plasmopara viticola = Plasmopara viticola (protective action) on grapevine seedlings; format: in vivo; conditions: 144 h, 160 ppm spray, grapevine cv. Riesling x Sylvaner, day 6 after infection, read-out: action (leaf area infected with Plasmopara viticola as a percentage compared with the infected, untreated control)
Method: Plasmopara viticola (Protective Action)
2 grapevine seedlings cv. Riesling×Sylvaner, each in the 4-5 leaf stage, are sprayed thoroughly from all sides with a spray mixture prepared with a wettable powder of the active substance (with 160 ppm of active ingredient) and subsequently cultured further in a controlled-environment cabinet at 17° C., 70-80% relative atmospheric humidity and with a photoperiod of 16 hours. After 6 days, the test plants are infected by spraying the undersides of the leaves with zoosporangia of Plasmopara viticola, suspended in distilled water (approx. 300,000 sporangia/ml). The grapevine plants are then incubated as follows: 1 day at 22° C. and under dew-point conditions in the dark and subsequently 4 days in the greenhouse. To induce fructification of Plasmopara viticola, the grapevines are transferred to a controlled-environment cabinet with dew-point conditions at 22° C. on day 5 after the infection.
The tests are carried out in each case on day 6 after the infection by determining the leaf area infected with Plasmopara viticola as a percentage compared with the infected, untreated control.

Erysiphe graminis = Erysiphe graminis (protective action) on wheat seedlings; format: in vivo; conditions: Blumeria graminis, 168 h, 160 ppm spray, wheat cv. Lita, evaluated 7 days after infection, read-out: action (leaf area covered in Erysiphe graminis as a percentage compared with the infected control)
Method: Erysiphe graminis (Protective Action)
30-40 wheat seedlings cv. “Lita” in the 1-leaf stage (distributed to two pots of ø7 cm) are sprayed thoroughly with a spray mixture prepared with a wettable powder of the active substance (with 160 ppm of active ingredient) and then cultured further in the greenhouse. One day after the treatment, the plants are dusted with conidia of Erysiphe graminis. The test is evaluated 7 days after the infection by determining the size of the leaf area covered in Erysiphe graminis as a percentage compared with the infected control.
Untreated, but infected control plants show a level of infection with Erysiphe of 100%.

SMILES | melting point [°C] | pest or weed control at 160 ppm (Puccinia coronata) [%] | pest or weed control at 160 ppm (Cercospora arachidicola) [%] | pest or weed control at 50 ppm (Venturia inaequalis) [%] | pest or weed control at 50 ppm (Alternaria brassicae) [%] | pest or weed control at 160 ppm (Plasmopara viticola) [%] | pest or weed control at 160 ppm (Erysiphe graminis) [%]
CO/N=C(\C(=O)OC)c1ccccc1CON=C(C)c1ccco1 | 95 to 97 |  |  |  |  |  | 
CO/N=C(\C(=O)OC)c1ccccc1CON=C(C)c1cccc(C(F)(F)F)c1 [Compound 12] |  | > 75 | > 75 | > 75 | > 75 | > 75 | 
CO/N=C(\C(=O)OC)c1ccccc1CON=C(C)c1ccccn1 [Compound 15] | 82 to 84 |  |  | > 75 |  |  | > 75
CO/N=C(\C(=O)OC)c1ccccc1CON=C(C)c1ccc(Cl)cc1 [Compound 17] |  | > 75 | > 75 | > 75 | > 75 | > 75 | 
CO/N=C(\C(=O)OC)c1ccccc1CON=C(C)Cc1cccc(C(F)(F)F)c1 [Compound 24] |  |  | > 75 | > 75 | > 75 | > 75 | > 75
CO/N=C(\C(=O)OC)c1ccccc1CON=C(c1ccccc1)C(C)C [Compound 29] |  |  |  | > 75 | > 75 | > 75 | > 75
CO/N=C(\C(=O)OC)c1ccccc1CON=C(c1cccc(Br)c1)C(F)(F)F [Compound 30] |  |  | > 75 | > 75 | > 75 | > 75 | 
CO/N=C(\C(=O)OC)c1ccccc1CON=C(c1ccc(C)cc1)C(F)(F)F [Compound 31] |  |  |  | > 75 | > 75 | > 75 | > 75
CO/N=C(\C(=O)OC)c1ccccc1CON=C(C)c1cc2ccccc2o1 [Compound 32] | 110 to 112 |  | > 75 | > 75 | > 75 | > 75 | 
CO/N=C(\C(=O)OC)c1ccccc1CON=C(C)c1cc(C(F)(F)F)cc(C(F)(F)F)c1 [Compound 33] | 76 to 78 |  | > 75 | > 75 | > 75 |  | > 75
CO/N=C(\C(=O)OC)c1ccccc1CON=C(C)c1ccc(F)cc1 [Compound 34] | 89 to 90 |  | > 75 | > 75 | > 75 |  | > 75
CO/N=C(\C(=O)OC)c1ccccc1CON=C(c1ccccc1)C1CC1 [Compound 36] |  |  | > 75 | > 75 | > 75 | > 75 | 
CO/N=C(\C(=O)OC)c1ccccc1CON=C(C)c1ccc2c(c1)OCO2 [Compound 38] |  |  | > 75 | > 75 | > 75 | > 75 | 
CO/N=C(\C(=O)OC)c1ccccc1CON=C(C)c1ccc(OC(F)F)cc1 [Compound 78] |  | > 75 |  | > 75 |  |  | 
CO/N=C(\C(=O)OC)c1ccccc1CON=C(C)c1ccc(F)c(C(F)(F)F)c1 [Compound 90] |  | > 75 | > 75 |  |  |  | 
CCC(=NOCc1ccccc1/C(=N/OC)C(=O)OC)c1ccc2ccccc2c1 [Compound 120] |  |  |  |  |  | > 75 | > 75
CO/N=C(\C(=O)OC)c1ccccc1CON=C(C)C(=O)c1ccc(F)cc1 [Compound 128] |  | > 75 |  |  |  |  | > 75
CO/N=C(\C(=O)OC)c1ccccc1CON=C(C)C(=O)c1cccc(C(F)(F)F)c1 [Compound 131] |  | > 75 |  | > 75 |  |  | 
CO/N=C(\C(=O)OC)c1ccccc1CON=C(C)Cc1ccc(Cl)c(C(F)(F)F)c1 [Compound 133] |  | > 75 | > 75 |  |  |  | 
CO/N=C(\C(=O)OC)c1ccccc1CON=C(C)c1cccc(Cl)c1 [Compound 135] |  |  |  | > 75 |  | > 75 | > 75
CO/N=C(\C(=O)OC)c1ccccc1CON=C(C)c1cccc(OC(F)(F)F)c1 [Compound 138] |  | > 75 | > 75 |  | > 75 | > 75 | 
CO/N=C(\C(=O)OC)c1ccccc1CON=C(c1cccc(C(F)(F)F)c1)C1CC1 [Compound 148] |  | > 75 | > 75 |  |  |  | 
